# Experiments:
# Pfeiffer cells = assay: Cell proliferation assay, Pfeiffer; type: cell-based; settings: Homo sapiens, Pfeiffer, 144 h; 6 days' growth, cell counting kit-8
# Protocol: Cell lines Pfeiffer (CRL-2632), suDHL-6 (CRL-2959) and suDHL-10 (CRL-2963) were obtained from ATCC. All cell lines were cultured in RPMI-1640 medium (Gibco) plus 10% FBS (Gibco). Cells are harvested by centrifuge and densities are determined using a CounterStar cell counter. Appropriate number of cells are plated in a96-well culture plate and pre-incubate overnight. Tested compounds are 1:3 diluted for 8-points and added into each well. After 6 days' growth, cell counting kit-8 (Dojindo) is used to detect cell viability and read on Tecan infinite pro. IC50s are counted by XLfit using a four-parameter model.
# PRC2 (EZH2-Y641F) = biological target: T1, PRC2 (EZH2-Y641F) (Homo sapiens, UniProt Q15910, Y641F); assay: In vitro methyltransferase assay; type: biochemical
# T1 construct: purchased Active motif
# Protocol: Recombinant PRC2 (EZH2-Y641F) was purchased from Active motif, S-adenosyl-methionin chloride (SAM) and Poly-L-lysine (PLL) were purchased from Sigma-Aldrich, H3(1-50)K27me1 peptide was purchased from Cisbio. LANCEUltra (Perkinelmer) system was used for detection. For the enzyme activity test, tested compounds are 1:3 diluted for 8-points, and added into each well, then 100 ng enzyme is added. And then the buffer [20 mM Tris pH8.5, 2 mM MgCl2, 0.01% Tween-20, 1 mM TCEP] containing […]/250 nM H3 (1-50)K27me1 premixtures are added. After 3 hours enzyme reaction at RT, the premixed detection buffer (PLL, Europium antibody and Ulight) is added, and react for 1 h at RT, then read fluorescence on Tecan infinite pro. IC50s are counted by XLfit using a four-parameter model.
# [1] = Dynamic solubility experiment; type: physicochemical; settings: for Solubility: room temperature, 24 h
# Source text: The free base samples and the two crystal forms were plotted separately in the experiment.
# [2] = Solid state stability experiment; type: physicochemical
# Source text: Detected changes in crystal form and purity at 4 and 7 days.
# [3] = 60° C. and 40° C./75% RH, 4 and 7 days
# T1 sequence (Q15910 whole entry Y641F): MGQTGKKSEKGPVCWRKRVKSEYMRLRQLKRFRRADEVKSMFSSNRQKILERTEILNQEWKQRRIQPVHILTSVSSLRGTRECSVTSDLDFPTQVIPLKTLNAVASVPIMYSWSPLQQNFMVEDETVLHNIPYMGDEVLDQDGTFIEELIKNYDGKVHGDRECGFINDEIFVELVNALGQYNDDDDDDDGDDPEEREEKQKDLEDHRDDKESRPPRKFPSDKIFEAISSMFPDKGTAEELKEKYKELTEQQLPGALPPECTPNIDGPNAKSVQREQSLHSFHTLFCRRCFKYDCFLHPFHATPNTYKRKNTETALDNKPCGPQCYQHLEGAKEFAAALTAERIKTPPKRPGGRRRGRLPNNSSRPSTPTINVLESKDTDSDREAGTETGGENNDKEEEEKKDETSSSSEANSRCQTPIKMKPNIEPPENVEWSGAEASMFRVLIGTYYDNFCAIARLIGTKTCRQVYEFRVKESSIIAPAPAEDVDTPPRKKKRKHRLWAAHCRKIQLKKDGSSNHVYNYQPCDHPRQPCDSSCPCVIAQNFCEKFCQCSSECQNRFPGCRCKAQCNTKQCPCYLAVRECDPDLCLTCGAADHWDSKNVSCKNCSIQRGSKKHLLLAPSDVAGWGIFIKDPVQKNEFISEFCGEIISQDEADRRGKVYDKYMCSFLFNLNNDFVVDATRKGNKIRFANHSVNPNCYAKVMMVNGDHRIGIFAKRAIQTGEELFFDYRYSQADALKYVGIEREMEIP
# T1 sequence (O75530 whole entry partner): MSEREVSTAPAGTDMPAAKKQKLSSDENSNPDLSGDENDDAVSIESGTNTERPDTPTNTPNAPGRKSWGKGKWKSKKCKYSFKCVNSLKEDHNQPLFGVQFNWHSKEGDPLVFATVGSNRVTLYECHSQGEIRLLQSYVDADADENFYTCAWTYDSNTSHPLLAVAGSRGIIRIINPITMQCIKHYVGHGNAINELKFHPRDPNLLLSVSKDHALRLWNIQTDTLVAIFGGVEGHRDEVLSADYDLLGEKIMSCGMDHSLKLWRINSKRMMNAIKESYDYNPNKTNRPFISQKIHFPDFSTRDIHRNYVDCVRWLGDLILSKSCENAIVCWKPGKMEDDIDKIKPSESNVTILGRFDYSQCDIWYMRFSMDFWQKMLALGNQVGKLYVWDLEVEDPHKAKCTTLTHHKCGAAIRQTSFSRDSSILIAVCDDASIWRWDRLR
# T1 sequence (Q15022 whole entry partner): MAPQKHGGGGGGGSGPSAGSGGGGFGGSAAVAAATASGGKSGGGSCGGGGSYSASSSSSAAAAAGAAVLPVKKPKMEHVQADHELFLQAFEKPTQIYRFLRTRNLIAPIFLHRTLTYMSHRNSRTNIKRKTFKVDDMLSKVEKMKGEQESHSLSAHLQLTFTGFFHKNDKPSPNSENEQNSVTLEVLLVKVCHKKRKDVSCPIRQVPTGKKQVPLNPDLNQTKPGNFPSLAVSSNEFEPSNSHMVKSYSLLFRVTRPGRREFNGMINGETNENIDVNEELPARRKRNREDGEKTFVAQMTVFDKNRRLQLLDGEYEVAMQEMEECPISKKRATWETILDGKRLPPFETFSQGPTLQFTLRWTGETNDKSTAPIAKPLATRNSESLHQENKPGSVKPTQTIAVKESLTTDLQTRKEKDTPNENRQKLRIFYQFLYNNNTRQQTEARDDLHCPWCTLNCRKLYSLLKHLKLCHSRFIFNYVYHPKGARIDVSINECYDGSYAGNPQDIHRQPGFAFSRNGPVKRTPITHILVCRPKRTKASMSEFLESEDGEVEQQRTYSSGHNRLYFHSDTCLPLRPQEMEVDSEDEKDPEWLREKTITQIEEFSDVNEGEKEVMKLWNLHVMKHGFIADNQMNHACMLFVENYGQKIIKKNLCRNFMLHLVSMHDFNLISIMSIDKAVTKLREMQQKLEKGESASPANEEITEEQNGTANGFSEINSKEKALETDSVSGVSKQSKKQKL
# T1 sequence (Q09028 whole entry partner): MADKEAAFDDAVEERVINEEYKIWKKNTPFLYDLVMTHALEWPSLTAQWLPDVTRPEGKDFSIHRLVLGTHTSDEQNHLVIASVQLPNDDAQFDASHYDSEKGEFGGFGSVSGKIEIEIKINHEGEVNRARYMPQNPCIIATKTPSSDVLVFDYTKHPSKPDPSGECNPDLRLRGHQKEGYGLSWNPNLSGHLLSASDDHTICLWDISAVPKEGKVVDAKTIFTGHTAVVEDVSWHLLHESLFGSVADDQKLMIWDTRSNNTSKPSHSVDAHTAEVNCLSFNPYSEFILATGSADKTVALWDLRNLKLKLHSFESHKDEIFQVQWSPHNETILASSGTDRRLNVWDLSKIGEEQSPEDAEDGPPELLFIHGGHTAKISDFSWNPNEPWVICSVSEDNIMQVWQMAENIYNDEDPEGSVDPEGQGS
# T1 sequence (Q6ZN18 whole entry partner): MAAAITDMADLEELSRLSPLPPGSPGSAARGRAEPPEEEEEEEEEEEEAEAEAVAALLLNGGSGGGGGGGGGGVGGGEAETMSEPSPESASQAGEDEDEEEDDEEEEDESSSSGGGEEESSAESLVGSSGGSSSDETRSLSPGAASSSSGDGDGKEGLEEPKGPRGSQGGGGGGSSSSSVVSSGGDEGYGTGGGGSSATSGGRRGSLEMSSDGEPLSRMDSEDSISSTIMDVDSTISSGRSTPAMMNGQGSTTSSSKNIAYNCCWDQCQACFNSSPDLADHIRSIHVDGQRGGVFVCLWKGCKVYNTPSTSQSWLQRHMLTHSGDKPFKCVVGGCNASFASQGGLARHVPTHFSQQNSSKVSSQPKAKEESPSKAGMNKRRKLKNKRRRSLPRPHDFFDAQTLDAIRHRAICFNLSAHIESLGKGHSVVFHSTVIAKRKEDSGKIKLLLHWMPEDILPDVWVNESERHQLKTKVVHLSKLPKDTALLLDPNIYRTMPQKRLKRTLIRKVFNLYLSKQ
structure (smiles),measurement,setting,value
"CCN(c1cc(C(=O)NCc2c(C)cc(C)[nH]c2=O)c(C)c2c1cnn2C)C1CCOCC1 [D1, N-((4,6-dimethyl-2-oxo-1,2-dihydropyridin-3-yl)methyl)-4-(ethyl (tetrahydro-2H-pyran-4-yl)amino)-1,7-dimethyl-1H-indazole-6-carboxamide]",IC50,Pfeiffer cells,> 10 µM
same,IC50,PRC2 (EZH2-Y641F),> 10 µM
CCN(c1cc(C(=O)NCc2c(C)cc(C)[nH]c2=O)c(C)c2c1cnn2C)C1CCN(CC(F)(F)F)CC1 [D4],IC50,Pfeiffer cells,> 3 µM
same,IC50,PRC2 (EZH2-Y641F),> 10 µM
CCc1c(C(=O)NCc2c(C)cc(C)[nH]c2=O)cc2c(cnn2C)c1N(CC)[C@H]1CC[C@H](N2CC(OC)C2)CC1.O=C(O)/C=C\C(=O)O [Crystal form B],Phenomenon,[1]; 0.1M HCl,clear
same,Solubility,[1]; 0.1M HCl,≥30400 µg/mL
same,Final pH,[1]; H2O,5.06
same,Phenomenon,[1]; H2O,turbid
same,Solubility,[1]; H2O,3130 µg/mL
same,Final pH,[1]; pH 4.5 buffer,4.91
same,Phenomenon,[1]; pH 4.5 buffer,clear
same,Solubility,[1]; pH 4.5 buffer,≥3070 µg/mL
same,Final pH,[1]; pH 6.8 buffer,6.53
same,Phenomenon,[1]; pH 6.8 buffer,clear
same,Solubility,[1]; pH 6.8 buffer,≥3720 µg/mL
same,Content (%),[2]; 4° C. 0 d,96.94%
same,Properties,[2]; 4° C. 0 d,Off-white
same,RRT(%) 0.86,[2]; 4° C. 0 d,0.19%
same,RRT(%) 0.89,[2]; 4° C. 0 d,0.09%
same,RRT(%) 0.92,[2]; 4° C. 0 d,0.05%
same,RRT(%) 0.94,[2]; 4° C. 0 d,0.17%
same,RRT(%) 1.04,[2]; 4° C. 0 d,0.51%
same,RRT(%) 1.07,[2]; 4° C. 0 d,0.43%
same,RRT(%) 1.10,[2]; 4° C. 0 d,0.38%
same,RRT(%) 1.13,[2]; 4° C. 0 d,0.21%
same,RRT(%) 1.15,[2]; 4° C. 0 d,0.40%
same,RRT(%) 1.16,[2]; 4° C. 0 d,0.64%
same,Total impurities (%),[2]; 4° C. 0 d,3.06%
same,Content (%),[2]; 40° C./75% RH 4 d,96.88%
same,Properties,[2]; 40° C./75% RH 4 d,Off-white
same,RRT(%) 0.86,[2]; 40° C./75% RH 4 d,0.20%
same,RRT(%) 0.89,[2]; 40° C./75% RH 4 d,0.08%
same,RRT(%) 0.92,[2]; 40° C./75% RH 4 d,0.05%
same,RRT(%) 0.94,[2]; 40° C./75% RH 4 d,0.16%
same,RRT(%) 1.04,[2]; 40° C./75% RH 4 d,0.45%
same,RRT(%) 1.07,[2]; 40° C./75% RH 4 d,0.40%
same,RRT(%) 1.10,[2]; 40° C./75% RH 4 d,0.47%
same,RRT(%) 1.13,[2]; 40° C./75% RH 4 d,0.20%
same,RRT(%) 1.15,[2]; 40° C./75% RH 4 d,0.41%
same,RRT(%) 1.16,[2]; 40° C./75% RH 4 d,0.63%
same,RRT(%) 1.20,[2]; 40° C./75% RH 4 d,0.07%
same,Total impurities (%),[2]; 40° C./75% RH 4 d,3.12%
same,Content (%),[2]; 40° C./75% RH 7 d,96.95%
same,Properties,[2]; 40° C./75% RH 7 d,Off-white
same,RRT(%) 0.86,[2]; 40° C./75% RH 7 d,0.25%
same,RRT(%) 0.89,[2]; 40° C./75% RH 7 d,0.07%
same,RRT(%) 0.92,[2]; 40° C./75% RH 7 d,0.05%
same,RRT(%) 0.94,[2]; 40° C./75% RH 7 d,0.16%
same,RRT(%) 1.04,[2]; 40° C./75% RH 7 d,0.45%
same,RRT(%) 1.07,[2]; 40° C./75% RH 7 d,0.41%
same,RRT(%) 1.10,[2]; 40° C./75% RH 7 d,0.44%
same,RRT(%) 1.13,[2]; 40° C./75% RH 7 d,0.20%
same,RRT(%) 1.15,[2]; 40° C./75% RH 7 d,0.41%
same,RRT(%) 1.16,[2]; 40° C./75% RH 7 d,0.63%
same,Total impurities (%),[2]; 40° C./75% RH 7 d,3.05%
same,Content (%),[2]; 60° C. 4 d,97.34%
same,Properties,[2]; 60° C. 4 d,Off-white
same,RRT(%) 0.86,[2]; 60° C. 4 d,0.14%
same,RRT(%) 0.89,[2]; 60° C. 4 d,0.06%
same,RRT(%) 0.94,[2]; 60° C. 4 d,0.26%
same,RRT(%) 1.04,[2]; 60° C. 4 d,0.36%
same,RRT(%) 1.07,[2]; 60° C. 4 d,0.43%
same,RRT(%) 1.10,[2]; 60° C. 4 d,0.32%
same,RRT(%) 1.13,[2]; 60° C. 4 d,0.13%
same,RRT(%) 1.15,[2]; 60° C. 4 d,0.39%
same,RRT(%) 1.16,[2]; 60° C. 4 d,0.59%
same,Total impurities (%),[2]; 60° C. 4 d,2.66%
same,Content (%),[2]; 60° C. 7 d,97.30%
same,Properties,[2]; 60° C. 7 d,Off-white
same,RRT(%) 0.86,[2]; 60° C. 7 d,0.16%
same,RRT(%) 0.89,[2]; 60° C. 7 d,0.05%
same,RRT(%) 0.94,[2]; 60° C. 7 d,0.29%
same,RRT(%) 1.04,[2]; 60° C. 7 d,0.35%
same,RRT(%) 1.07,[2]; 60° C. 7 d,0.44%
same,RRT(%) 1.10,[2]; 60° C. 7 d,0.29%
same,RRT(%) 1.13,[2]; 60° C. 7 d,0.13%
same,RRT(%) 1.15,[2]; 60° C. 7 d,0.40%
same,RRT(%) 1.16,[2]; 60° C. 7 d,0.60%
same,Total impurities (%),[2]; 60° C. 7 d,2.70%
same,change in crystal form on storage,[2]; [3],the crystal form has not changed
same,solid state stability,[2]; [3],good stability
